Reference: patent publication US12435031B2, “Compound with broad-spectrum antibacterial activity and its antibacterial composition” (CHINA AGRICULTURAL UNIVERSITY, priority 2023, dated 2025)
In brackets after ≈: the same amount, converted by molar mass. Read-outs that look alike come from different tables or passages of the source.

What was measured:
[1] = MIC against pathogenic fungi, Candida ATCC 6258; assay type: cell-based; settings: Candida albicans ATCC 6258 (Candida krusei ATCC 6258)
[2] = test system: Aspergillus flavus ATCC 11492; test: MIC against pathogenic fungi, Aspergillus flavus; assay type: cell-based
[3] = test system: Aspergillus niger ATCC 96918; test: MIC against pathogenic fungi, Aspergillus niger; assay type: cell-based; settings: Aspergillus niger ATCC 96918
[4] = test system: Trichophyton ATCC MTA-4439; test: MIC against pathogenic fungi, Trichophyton; assay type: cell-based; settings: Trichophyton ATCC MTA-4439
Staphylococcus = test: microbe, parasite or virus in culture; assay type: cell-based; settings: Staphylococcus, read-out: MICs
Bacillus = test: microbe, parasite or virus in culture; assay type: cell-based; settings: read-out: MICs
Clostridium perfringens [5] = test: microbe, parasite or virus in culture; assay type: cell-based; settings: read-out: MICs
Streptococcus = test: microbe, parasite or virus in culture; assay type: cell-based; settings: read-out: MICs
Mycobacterium smegmatis = test: microbe, parasite or virus in culture; assay type: cell-based; settings: Mycolicibacterium smegmatis, read-out: MICs
Clostridium perfringens [6] = test: microbe, parasite or virus in culture; assay type: cell-based; settings: Clostridium perfringens, read-out: MIC value against Clostridium perfringens
MRSA T144 = settings: Galleria mellonella infected with MRSA T144, 2 mg/kg b.w. 1 hour after infection, within 5 days
Enterococcus = test: microbe, parasite or virus in culture; assay type: cell-based; settings: read-out: MICs

For C[C@@H]1[C@H](O)[C@@H](C)/C=C/C=C/C=C/C=C/C=C/C=C/C=C/[C@H](O[C@@H]2O[C@H](C)[C@@H](O)[C@H](N)[C@@H]2O)C[C@@H]2O[C@](O)(C[C@@H](O)C[C@@H](O)[C@H](O)CC[C@@H](O)C[C@@H](O)CC(=O)O[C@H]1C)C[C@H](O)[C@H]2C(=O)O [Amphotericin B], the MICs [1] was 0.5 µg/mL, the MICs [2] was 0.25 µg/mL and the MICs [3] was 0.125 µg/mL. It also gave an MICs [4] of 0.25 µg/mL.
CN[C@H](CC(C)C)C(=O)N[C@H]1C(=O)N[C@@H](CC(N)=O)C(=O)N[C@H]2C(=O)N[C@H]3C(=O)N[C@H](C(=O)N[C@H](C(=O)O)c4cc(O)cc(O)c4-c4cc3ccc4O)[C@H](O)c3ccc(c(Cl)c3)Oc3cc2cc(c3O[C@@H]2O[C@H](CO)[C@@H](O)[C@H](O)[C@H]2O[C@H]2C[C@](C)(N)[C@H](O)[C@H](C)O2)Oc2ccc(cc2Cl)[C@H]1O [VAN, Vancomycin] showed an MIC (Staphylococcus) of 1 µg/mL (≈ 0.69 µM), an MIC (Bacillus) of 0.5 µg/mL (≈ 0.345 µM) and an MIC (Clostridium perfringens [5]) of 0.5 µg/mL (≈ 0.345 µM). For the same compound, the MIC (Streptococcus) was 0.25 µg/mL (≈ 0.173 µM), the MIC (Mycobacterium smegmatis) was 16 µg/mL (≈ 11 µM) and the MIC (Clostridium perfringens [6]) was at most 0.25 µg/mL. It also gave a protective rate (MRSA T144) of 40%.
For CC(=O)NC[C@H]1CN(c2ccc(N3CCOCC3)c(F)c2)C(=O)O1 [linezolid], the MIC (Enterococcus) was 1 µg/mL (≈ 2.96 µM).
